ChEMBL document CHEMBL3826933, “Discovery of 7-(Prolinol-N-yl)-2-phenylamino-thiazolo[5,4-d]pyrimidines as Novel Non-Nucleoside Partial Agonists for the A2A Adenosine Receptor: Prediction from Molecular Modeling” (J Med Chem, 2016)
≈ marks a conversion by molar mass, not a printed value.

Columns and labels:
Adenosine receptor A1 = molecular target: T1, Adenosine receptor A1 (Homo sapiens, UniProt P30542); assay: Displacement of [3H]CCPA from recombinant human adenosine A1 receptor expressed in CHO cell membrane after 3 hrs by microbeta scintillation counting method; type: cell membranes
T1 sequence (P30542 whole entry): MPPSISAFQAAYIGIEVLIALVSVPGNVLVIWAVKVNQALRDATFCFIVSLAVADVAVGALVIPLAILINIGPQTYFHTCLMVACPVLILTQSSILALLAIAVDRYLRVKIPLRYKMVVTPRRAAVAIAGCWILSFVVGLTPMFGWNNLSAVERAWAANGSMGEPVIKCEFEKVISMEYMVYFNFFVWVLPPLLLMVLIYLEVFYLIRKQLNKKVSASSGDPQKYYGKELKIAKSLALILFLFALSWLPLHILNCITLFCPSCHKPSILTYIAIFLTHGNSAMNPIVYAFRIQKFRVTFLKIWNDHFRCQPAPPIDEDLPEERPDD

Adenosine receptor A2a [1] = molecular target: T2, Adenosine receptor A2a (Homo sapiens, UniProt P29274); assay: Displacement of [3H]NECA from recombinant human adenosine A2A receptor expressed in CHO cell membrane after 3 hrs by microbeta scintillation counting method; type: cell membranes
Adenosine receptor A2b = molecular target: T3, Adenosine receptor A2b (Homo sapiens, UniProt P29275); assay: Antagonist activity at recombinant human adenosine A2B receptor expressed in CHOK1 cell membrane assessed as inhibition of NECA-stimulated adenylyl cyclase activity incubated for 20 mins in presence of [alpha32P]ATP; type: functional, cell-based, CHO-K1
T3 sequence (P29275 whole entry): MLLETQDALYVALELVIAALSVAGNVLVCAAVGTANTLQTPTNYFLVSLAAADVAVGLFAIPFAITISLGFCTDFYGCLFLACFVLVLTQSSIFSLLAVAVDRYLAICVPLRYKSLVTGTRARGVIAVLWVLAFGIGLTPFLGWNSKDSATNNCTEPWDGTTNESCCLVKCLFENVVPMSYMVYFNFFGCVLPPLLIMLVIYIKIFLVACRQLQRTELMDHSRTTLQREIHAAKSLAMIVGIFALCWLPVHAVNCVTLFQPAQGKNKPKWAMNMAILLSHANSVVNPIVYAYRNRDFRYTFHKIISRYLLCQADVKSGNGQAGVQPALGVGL

Adenosine receptor A3 = molecular target: T4, Adenosine receptor A3 (Homo sapiens, UniProt P0DMS8); assay: biochemical
T4 sequence (P0DMS8 whole entry): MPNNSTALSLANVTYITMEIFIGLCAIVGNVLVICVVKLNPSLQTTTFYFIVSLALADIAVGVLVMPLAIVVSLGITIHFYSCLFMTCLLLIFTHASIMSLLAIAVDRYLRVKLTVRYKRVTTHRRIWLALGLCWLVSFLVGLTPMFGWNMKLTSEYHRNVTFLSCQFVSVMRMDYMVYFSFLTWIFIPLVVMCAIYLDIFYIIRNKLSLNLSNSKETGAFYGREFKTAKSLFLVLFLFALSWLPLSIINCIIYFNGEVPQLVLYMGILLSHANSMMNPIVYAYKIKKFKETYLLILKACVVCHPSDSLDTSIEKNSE
Description: Displacement of [3H]HEMADO from recombinant human adenosine A3 receptor expressed in CHO cell membrane after 3 hrs by microbeta scintillation counting method

Adenosine receptor A2a [2] = molecular target: T2, Adenosine receptor A2a; assay: Partial agonist activity at recombinant human adenosine A2A receptor expressed in CHOK1 cell membrane assessed as adenylyl cyclase activity at 100 uM incubated for 20 mins in presence of [alpha32P]ATP relative to NECA; type: functional, cell-based; settings: CHO-K1
Adenosine receptor A2a [3] = molecular target: T2, Adenosine receptor A2a; assay: Partial agonist activity at recombinant human adenosine A2A receptor expressed in CHOK1 cell membrane assessed as adenylyl cyclase activity at 1 to 100 uM incubated for 20 mins in presence of [alpha32P]ATP relative to NECA; type: functional, cell-based; settings: CHO-K1
CHO [4] = assay: Selectivity ratio of Ki for recombinant human adenosine A1 receptor expressed in CHO cell membrane to Ki for recombinant human adenosine A2A receptor expressed in CHO cell membrane; type: cell-based
CHO [5] = assay: Selectivity ratio of Ki for recombinant human adenosine A3 receptor expressed in CHO cell membrane to Ki for recombinant human adenosine A2A receptor expressed in CHO cell membrane; type: cell-based
[6] = Thermodynamic equilibrium solubility of compound in water at 1 to 300 ug after overnight incubation by microplate reader analysis; type: physicochemical; settings: read-out: Therm_solubility
[7] = Thermodynamic equilibrium solubility of compound in phosphate buffered saline at 1 to 300 ug after overnight incubation by microplate reader analysis; type: physicochemical; settings: read-out: Therm_solubility
[8] = Thermodynamic equilibrium solubility of compound in simulated gastric fluid at 1 to 300 ug after overnight incubation by microplate reader analysis; type: ADME; settings: read-out: Therm_solubility

T2 sequence (P29274 whole entry): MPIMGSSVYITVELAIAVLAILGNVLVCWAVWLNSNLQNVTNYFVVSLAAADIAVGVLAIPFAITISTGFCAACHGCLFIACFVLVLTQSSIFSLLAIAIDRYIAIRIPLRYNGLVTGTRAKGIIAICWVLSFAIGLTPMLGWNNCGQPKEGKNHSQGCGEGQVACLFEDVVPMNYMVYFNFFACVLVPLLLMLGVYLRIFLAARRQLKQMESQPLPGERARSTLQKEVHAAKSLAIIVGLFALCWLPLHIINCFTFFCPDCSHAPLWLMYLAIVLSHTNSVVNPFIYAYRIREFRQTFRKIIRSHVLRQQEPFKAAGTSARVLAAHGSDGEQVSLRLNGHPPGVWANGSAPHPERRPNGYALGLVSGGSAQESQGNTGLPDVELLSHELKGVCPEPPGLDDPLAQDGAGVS

Row | Ki (Adenosine receptor A1) [µM] | Ki (Adenosine receptor A2a [1]) [µM] | Ki (Adenosine receptor A2b) [µM] | Ki (Adenosine receptor A3) [µM] | Efficacy (Adenosine receptor A2a [2]) [%] | Efficacy (Adenosine receptor A2a [3]) [%] | solubility thermodynamic [6] [µg/mL] | solubility thermodynamic [7] [µg/mL] | solubility thermodynamic [8] [µg/mL] | Compound | Ratio Ki (CHO [4]) | Ratio Ki (CHO [5])
1 | > 30 | 3.18 | > 10 | 3.63 |  |  |  |  |  | O=[N+]([O-])c1ccc(Nc2nc3c(N4CCCC4)ncnc3s2)cc1 |  | 
2 | > 100 | 4.93 | > 10 | 4.64 |  |  |  |  |  | Cc1ccc(Nc2nc3c(Cl)ncnc3s2)cc1 |  | 
3 | > 100 | 1.27 | > 10 | 1.28 |  |  |  |  |  | CN(C)c1ncnc2sc(Nc3ccccc3)nc12 |  | 
4 | > 100 | > 100 | > 10 | > 100 |  |  |  |  |  | Clc1ncnc2sc(NCCN3CCOCC3)nc12 |  | 
5 | > 100 | 1.52 | > 10 | 3.67 |  |  |  |  |  | Clc1ncnc2sc(Nc3ccccc3)nc12 |  | 
6 | 0.399 | 0.313 | > 10 | 0.843 | 50 |  |  |  |  | Cc1ccc(Nc2nc3c(N4CCC[C@H]4CO)ncnc3s2)cc1 |  | 
7 | > 100 | 13.2 | > 10 | 18.3 |  |  |  |  |  | Clc1ccc(Nc2nc3c(N4CCCCC4)ncnc3s2)cc1 |  | 
8 | 0.629 | 0.466 | > 10 | 0.934 | 50 |  |  |  |  | OC[C@@H]1CCCN1c1ncnc2sc(Nc3ccc(Cl)cc3)nc12 |  | 
9 | > 100 | 2.06 | > 10 | 4.26 |  | 10 |  |  |  | Clc1ccc(Nc2nc3c(N4CCCC4)ncnc3s2)cc1 |  | 
10 | 17.8 | 8.11 | > 10 | 17.2 |  |  |  |  |  | Fc1cccc(F)c1Nc1nc2c(Cl)ncnc2s1 |  | 
11 | > 100 | > 100 | > 10 | > 10 |  |  |  |  |  | CN1CCN(c2ncnc3sc(Nc4ccc(Cl)cc4)nc23)CC1 |  | 
12 | > 100 | 0.102 | > 10 | 1.28 |  | 10 |  |  |  | COc1cc(Nc2nc3c(N4CCCC4)ncnc3s2)cc(OC)c1OC | > 100 | 12
13 | 16.5 | 11.2 | > 10 | 3.89 |  |  |  |  |  | CCN(CC)c1ncnc2sc(Nc3ccc(Cl)cc3)nc12 |  | 
14 | > 100 | > 100 | > 10 | > 10 |  |  |  |  |  | CN(C)c1ncnc2sc(Nc3ccc(Cl)cc3)nc12 |  | 
15 | 0.974 | 0.33 | > 10 | 1.46 | 50 |  |  |  |  | COc1cc(Nc2nc3c(N4CCC[C@H]4CO)ncnc3s2)cc(OC)c1OC |  | 
16 | 0.555 | 0.2 | > 10 | 0.978 | 50 |  | 4300 (≈ 13.1 mM) | 4800 (≈ 14.7 mM) | 3500 (≈ 10.7 mM) | OC[C@@H]1CCCN1c1ncnc2sc(Nc3ccccc3)nc12 | 3 | 3
17 | > 30 | 2.84 | > 10 | 4.31 |  |  |  |  |  | CN1CCN(c2ncnc3sc(Nc4ccccc4)nc23)CC1 |  | 
18 | 11.5 | 3.57 | > 10 | 5.88 |  |  |  |  |  | COc1ccc(Nc2nc3c(Cl)ncnc3s2)cc1 |  | 
19 | > 100 | 0.333 | > 10 | 4.46 |  |  |  |  |  | c1ccc(Nc2nc3c(N4CCOCC4)ncnc3s2)cc1 | > 3000 | 13

Row | Ki (Adenosine receptor A1) [µM] | Ki (Adenosine receptor A2a [1]) [µM] | Ki (Adenosine receptor A2b) [µM] | Ki (Adenosine receptor A3) [µM] | Efficacy (Adenosine receptor A2a [2]) [%] | Efficacy (Adenosine receptor A2a [3]) [%] | solubility thermodynamic [6] [µg/mL] | solubility thermodynamic [7] [µg/mL] | solubility thermodynamic [8] [µg/mL] | Compound | Ratio Ki (CHO [4]) | Ratio Ki (CHO [5])
20 | 7.24 | 1.5 | > 10 | 7.33 |  |  |  |  |  | O=C(Nc1nc2c(Cl)ncnc2s1)c1ccccc1 |  | 
21 | > 30 | 0.98 | > 10 | 12.1 |  |  |  |  |  | c1ccc(Nc2nc3c(N4CCCCC4)ncnc3s2)cc1 |  | 
22 | 2.31 | 2.26 | > 10 | 3.19 |  | 10 |  |  |  | Fc1cccc(F)c1Nc1nc2c(N3CCCC3)ncnc2s1 |  | 
23 | > 30 | > 30 | > 10 | 7.95 |  |  |  |  |  | O=[N+]([O-])c1ccc(Nc2nc3c(Cl)ncnc3s2)cc1 |  | 
24 | > 100 | 0.245 | > 10 | 1.29 |  | 10 | > 150 |  |  | Brc1cccc(Nc2nc3c(N4CCCC4)ncnc3s2)c1 |  | 
25 | > 100 | 2.21 | > 10 | > 30 |  |  |  |  |  | CCN(CC)c1ncnc2sc(Nc3ccccc3)nc12 |  | 
26 | 0.53 | 0.153 | > 10 | 1.07 | 50 |  | 160 (≈ 0.394 mM) |  |  | OC[C@@H]1CCCN1c1ncnc2sc(Nc3cccc(Br)c3)nc12 | 3 | 3
27 | 25 | 2.69 | > 10 | 4.94 |  |  |  |  |  | Clc1ccc(Nc2nc3c(Cl)ncnc3s2)cc1 |  | 
28 | > 30 | 1.87 | > 10 |  |  |  |  |  |  | S=C(NCc1ccccc1)N(Cc1ccccc1)c1nc2c(Cl)ncnc2s1 |  | 
29 | > 100 | 1.05 | > 10 | 2.65 |  |  |  |  |  | COc1cc(Nc2nc3c(Cl)ncnc3s2)cc(OC)c1OC |  | 
30 | > 100 | 8.39 | > 10 | > 30 |  |  |  |  |  | CCN1CCN(c2ncnc3sc(Nc4ccccc4)nc23)CC1 |  | 
31 | 12.6 | 2.96 | > 10 | 3.9 |  |  |  |  |  | Clc1ncnc2sc(Nc3cccc(Br)c3)nc12 |  | 
32 | 7.97 | 3.26 | > 10 | 3.42 | 50 |  |  |  |  | OC[C@@H]1CCCN1c1ncnc2sc(Nc3c(F)cccc3F)nc12 |  | 
33 | > 100 | > 100 | > 10 | > 100 |  |  |  |  |  | c1ccc(Nc2nc3c(N4CCC(N5CCCCC5)CC4)ncnc3s2)cc1 |  | 
34 | > 100 | 0.974 | > 10 | 0.563 |  | 10 | > 150 |  |  | Cc1ccc(Nc2nc3c(N4CCCC4)ncnc3s2)cc1 |  | 
35 | > 30 | 9.09 | > 10 | > 10 |  |  |  |  |  | c1ccc(Nc2nc3c(N4CCNCC4)ncnc3s2)cc1 |  | 
36 | > 100 | 1.4 | > 10 | > 100 |  |  |  |  |  | Clc1ccc(Nc2nc3c(N4CCOCC4)ncnc3s2)cc1 |  | 
37 | > 30 | 0.351 | > 10 | 8.63 |  | 10 |  |  |  | c1ccc(Nc2nc3c(N4CCCC4)ncnc3s2)cc1 |  | 
38 | 0.713 | 1.11 | > 10 | 0.594 |  |  |  |  |  | COc1ccc(Nc2nc3c(N4CCC[C@H]4CO)ncnc3s2)cc1 |  | 
